Where “and” joins values, the source holds several entries; their conditions need not be identical. Equal values may be shown once. Where only a bound is given, the exact number is not on record here.

For the assay, the system named is MDA-MB-231 complex spheroids, growth inhibition. Nature of the assay: Anticancer human tumor MDA-MB-231 cell line growth inhibition [Asc].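 For all read-outs here: spheroids exposed to compounds for 7 days.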 Conditions: for viability, T/C: stronger effect = lower value. The method, boiled down:
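Stromal components (HUVEC and hMSC) are co-assembled with the cancer cells into multicellular spheroids. Drugs are then added singly or paired, at concentrations falling by half-log increments from a clinically achievable maximum, capped at 10 microM without known Cmax.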

The mark [1] stands for this setting: curve of first compound, second compound 0.01 µM.
The mark [2] stands for this setting: curve of first compound, second compound 0.0316 µM.
Setting [3] is: curve of first compound, second compound 0.1 µM.
The mark [4] stands for this setting: curve of first compound, second compound 0.316 µM.
[5] abbreviates: curve of first compound, second compound 1 µM.
The mark [6] stands for this setting: second compound 0.01 µM, first compound 0.0316 µM.
Where [7] appears, read: second compound 0.01 µM, first compound 0.1 µM.
The mark [8] stands for this setting: second compound 0.01 µM, first compound 0.316 µM.
Where [9] appears, read: second compound 0.01 µM, first compound 1 µM.
Where [10] appears, read: second compound 0.01 µM, first compound 3.16 µM.
The mark [11] stands for this setting: second compound 0.01 µM, first compound 10 µM.
Where [12] appears, read: second compound 0.0316 µM, first compound 0.0316 µM.
Where [13] appears, read: second compound 0.0316 µM, first compound 0.1 µM.
The mark [14] stands for this setting: second compound 0.0316 µM, first compound 0.316 µM.
[15] abbreviates: second compound 0.0316 µM, first compound 1 µM.
Where [16] appears, read: second compound 0.0316 µM, first compound 3.16 µM.
Where [17] appears, read: second compound 0.0316 µM, first compound 10 µM.
Where [18] appears, read: second compound 0.1 µM, first compound 0.0316 µM.
Setting [19] is: second compound 0.1 µM, first compound 0.1 µM.
[20] abbreviates: second compound 0.1 µM, first compound 0.316 µM.
Where [21] appears, read: second compound 0.1 µM, first compound 1 µM.
Where [22] appears, read: second compound 0.1 µM, first compound 3.16 µM.
[23] abbreviates: second compound 0.1 µM, first compound 10 µM.
The mark [24] stands for this setting: second compound 0.316 µM, first compound 0.0316 µM.
Setting [25] is: second compound 0.316 µM, first compound 0.1 µM.
The mark [26] stands for this setting: second compound 0.316 µM, first compound 0.316 µM.
The mark [27] stands for this setting: second compound 0.316 µM, first compound 1 µM.
Where [28] appears, read: second compound 0.316 µM, first compound 3.16 µM.
Where [29] appears, read: second compound 0.316 µM, first compound 10 µM.
Setting [30] is: second compound 1 µM, first compound 0.0316 µM.
[31] abbreviates: second compound 1 µM, first compound 0.1 µM.
The mark [32] stands for this setting: second compound 1 µM, first compound 0.316 µM.
Setting [33] is: second compound 1 µM, first compound 1 µM.
The mark [34] stands for this setting: second compound 1 µM, first compound 3.16 µM.
[35] abbreviates: second compound 1 µM, first compound 10 µM.

The IC50 is the concentration at which inhibition is half-maximal. A word on the viability, T/C: it is the ratio of treated to control. In the case of `C#Cc1c(F)ccc2cc(O)cc(-c3ncc4c(N5CC6CCC(C5)N6)nc(OCC56CCCN5CC(F)C6)nc4c3F)c12` (stereo not given) + CNC(C)C(=O)NC1CN(S(=O)(=O)c2cccc(S(=O)(=O)N3CCC4CCC(C(=O)NC(c5ccccc5)c5ccccc5)N4C(=O)C(NC(=O)C(C)NC)C3)c2)CCC2CCC(C(=O)NC(c3ccccc3)c3ccccc3)N2C1=O, the IC50 by setting is: (curve of first compound, second compound 0.00316 µM) below 31.6 nM; under setting [1], below 31.6 nM; under setting [2], below 31.6 nM; under setting [3], below 31.6 nM; under setting [4], 3780 nM; under setting [5], 2970 nM. The viability, T/C runs as follows: (second compound 0.00316 µM, first compound 0.0316 µM) 4.06%; (second compound 0.00316 µM, first compound 0.1 µM) 5.16%; (second compound 0.00316 µM, first compound 0.316 µM) 5.29%; (second compound 0.00316 µM, first compound 1 µM) 3.82%; (second compound 0.00316 µM, first compound 3.16 µM) 2.11%; (second compound 0.00316 µM, first compound 10 µM) 1.85%. The viability, T/C runs as follows: under setting [6], 1.96%; under setting [7], 2.54%; under setting [8], 2.18%; under setting [9], 3.28%; under setting [10], 2.31%; under setting [11], 1.91%. For the same compound, the viability, T/C by setting is: under setting [12], 1.62%; under setting [13], 2.61%; under setting [14], 2.63%; under setting [15], 1.93%; under setting [16], 2.58%; under setting [17], 1.22%. The viability, T/C is, setting by setting: under setting [18], 1.38%; under setting [19], 1.67%; under setting [20], 1.43%; under setting [21], 1.74%; under setting [22], 1.84%; under setting [23], 2.09%. Moreover, the viability, T/C runs as follows: under setting [24], 112%; under setting [25], 94.9%; under setting [26], 96%; under setting [27], 73%; under setting [28], 51.6%; under setting [29], 34.9%. Further, the viability, T/C under setting [30] was 99.6%; the viability, T/C under setting [31] is 110%; the viability, T/C under setting [32] is 97.2%; the viability, T/C under setting [33] is 68.8%; the viability, T/C under setting [34] was 53.4%; the viability, T/C under setting [35] was 38.7%.

As to `Cc1nc(N2CCC3(CC2)COC(C)C3N)c(CO)nc1Sc1ccnc(N)c1Cl` (stereo not given), the viability, T/C reads like this: (compound 0.00949 µM) 122% and 98.3% and 98%; (compound 0.03 µM) 117% and 93.5% and 101%; (compound 0.0949 µM) 111% and 94.2% and 94.4%; (compound 0.3 µM) 63.3% and 47.9% and 61.2%; (compound 0.949 µM) 3.21% and 2.3% and 2.69%; (compound 3 µM) 0.89% and 1.08% and 0.76%. Also, the IC50 (curve of compound) is 386 nM and 285 nM and 373 nM.

`O=C(c1cc(Cc2n[nH]c(=O)c3ccccc23)ccc1F)N1CCN(C(=O)C2CC2)CC1` + CNC(C)C(=O)NC1CN(S(=O)(=O)c2cccc(S(=O)(=O)N3CCC4CCC(C(=O)NC(c5ccccc5)c5ccccc5)N4C(=O)C(NC(=O)C(C)NC)C3)c2)CCC2CCC(C(=O)NC(c3ccccc3)c3ccccc3)N2C1=O: the concentration for half-maximal inhibition (IC50) is below 31.6 nM under setting [1]; below 31.6 nM under setting [2]; below 31.6 nM under setting [3]; below 31.6 nM under setting [4]; below 31.6 nM under setting [5]. For the same compound, the viability, T/C runs as follows: under setting [6], 2.12%; under setting [7], 2.15%; under setting [8], 2.12%; under setting [9], 2.46%; under setting [10], 1.41%; under setting [11], 1.59%. The viability, T/C by setting is: under setting [12], 1.57%; under setting [13], 1.69%; under setting [14], 1.39%; under setting [15], 1.53%; under setting [16], 1.35%; under setting [17], 1.61%. In addition, the viability, T/C was 1.25% under setting [18]; 1.35% under setting [19]; 1.63% under setting [20]; 1.07% under setting [21]; 1.04% under setting [22]; 1.01% under setting [23]. Further, the viability, T/C reads like this: under setting [24], 1.03%; under setting [25], 1.15%; under setting [26], 1.4%; under setting [27], 1.07%; under setting [28], 0.98%; under setting [29], 0.83%. Further, the viability, T/C by setting is: under setting [30], 1.05%; under setting [31], 1.48%; under setting [32], 1.17%; under setting [33], 0.97%; under setting [34], 0.82%; under setting [35], 0.96%.

In the case of `COc1c(OCCCN2CCOCC2)ccc2c3n(c(=NC(=O)c4cnc(N)nc4)nc12)CCN3`, the viability, T/C is 83.7% and 92% and 96.1% (compound 0.00316 µM); 85.2% and 80.5% and 92.2% (compound 0.01 µM); 64.8% and 66.8% and 75.9% (compound 0.0316 µM); 47.6% and 48.4% and 60% (compound 0.1 µM); 36.6% and 36.7% and 45.5% (compound 0.316 µM); 32% and 32.1% and 41.6% (compound 1 µM). Further, the IC50 (curve of compound) is 82.5 nM and 91.6 nM and 226 nM.

As to `C#Cc1c(F)ccc2cc(O)cc(-c3ncc4c(N5CC6CCC(C5)N6)nc(OCC56CCCN5CC(F)C6)nc4c3F)c12` (stereo not given), the viability, T/C (compound 0.0316 µM) was 120% and 100% and 106%; the viability, T/C (compound 0.1 µM) was 95.9% and 97.5% and 97.1%; the viability, T/C (compound 0.316 µM) is 111% and 98.8% and 91.7%; the viability, T/C (compound 1 µM) was 66.2% and 72.6% and 72.7%; the viability, T/C (compound 3.16 µM) is 48.7% and 64.1% and 62.1%; the viability, T/C (compound 10 µM) was 35.2% and 51.7% and 50.2%. Further, for the setting “curve of compound”, the IC50 was 2170 nM and > 10000 nM.

For the compound `C=C(F)C(=O)N1CCN(c2nc(OCC3CCCN3C)nc3c2CCN(c2cccc4cccc(Cl)c24)C3)CC1CC#N` (stereo not given), the viability, T/C by setting is: (compound 0.0316 µM) 101% (2×) and 104%; (compound 0.1 µM) 103% and 99.7% and 93.1%; (compound 0.316 µM) 103% and 98.3% and 110%; (compound 1 µM) 101% and 94.9% and 103%; (compound 3.16 µM) 54.9% and 51.6% and 77.3%; (compound 10 µM) 0.35% and 0.45% and 1.25%. Also, the IC50 (curve of compound) is 3510 nM and 3280 nM and 4780 nM.

The record behind these values is PubChem BioAssay AID1963443 (Molecular Pharmacology Branch, DTP, NCI, 2024).
